# Assay results from ChEMBL document CHEMBL1909046, “DrugMatrix in vitro pharmacology data”.
# What was measured:
# [1] = biological target: Beta-2 adrenergic receptor (Homo sapiens, UniProt P07550); assay: DRUGMATRIX: Adrenergic beta2 radioligand binding (ligand: [3H] CGP-12177); assay type: cell membranes, Membrane; details: cho; Not Active = under 50% inhibition at 10 µM
# [2] = biological target: T1, 5-hydroxytryptamine receptor 2C (Homo sapiens, UniProt P28335); assay: DRUGMATRIX: Serotonin (5-Hydroxytryptamine) 5-HT2C radioligand binding (ligand: [3H] Mesulergine); assay type: cell membranes, CHO-K1, Membrane; details: Not Active = under 50% inhibition at 10 µM
# T1 sequence (P28335 whole entry): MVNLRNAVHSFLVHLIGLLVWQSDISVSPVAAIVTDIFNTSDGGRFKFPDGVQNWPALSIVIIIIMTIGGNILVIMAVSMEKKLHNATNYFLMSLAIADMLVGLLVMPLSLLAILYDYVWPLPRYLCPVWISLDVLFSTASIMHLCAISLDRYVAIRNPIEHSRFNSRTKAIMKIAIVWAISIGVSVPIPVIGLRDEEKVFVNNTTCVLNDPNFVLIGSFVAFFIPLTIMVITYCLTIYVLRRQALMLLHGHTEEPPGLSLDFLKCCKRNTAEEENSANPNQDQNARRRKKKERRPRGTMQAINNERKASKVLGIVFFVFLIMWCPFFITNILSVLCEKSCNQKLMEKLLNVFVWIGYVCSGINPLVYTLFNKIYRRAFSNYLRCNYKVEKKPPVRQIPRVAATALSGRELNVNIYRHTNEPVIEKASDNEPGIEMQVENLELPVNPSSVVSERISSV
# Substance-K receptor = biological target: T2, Substance-K receptor (Homo sapiens, UniProt P21452); assay type: cell membranes, CHO, Membrane; details: cho; further: in other assays of this panel Not Active means under 50% inhibition at 10 µM
# T2 sequence (P21452 whole entry): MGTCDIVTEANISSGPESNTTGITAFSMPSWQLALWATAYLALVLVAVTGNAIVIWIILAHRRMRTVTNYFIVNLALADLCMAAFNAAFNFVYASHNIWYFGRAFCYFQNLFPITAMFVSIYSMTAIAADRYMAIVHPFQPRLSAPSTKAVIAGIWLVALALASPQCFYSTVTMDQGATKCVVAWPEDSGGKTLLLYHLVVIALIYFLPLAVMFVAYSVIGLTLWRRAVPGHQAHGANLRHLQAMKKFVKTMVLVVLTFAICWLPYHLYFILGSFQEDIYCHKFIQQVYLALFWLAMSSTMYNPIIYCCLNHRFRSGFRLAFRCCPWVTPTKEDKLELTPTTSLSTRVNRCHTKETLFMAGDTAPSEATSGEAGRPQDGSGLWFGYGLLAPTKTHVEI
# Melanocortin receptor 5 = Melanocortin receptor 5 (Homo sapiens, UniProt P33032); assay type: cell membranes, HEK293, Membrane; details: hek293; further: in other assays of this panel Not Active means under 50% inhibition at 10 µM
# Interstitial collagenase = biological target: T3, Interstitial collagenase (Homo sapiens, UniProt P03956); assay type: tissue-based, Rheumatoid synovial fibroblasts;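 further: MMP-1 enzyme inhibition assay using a peptide substrate; in other assays of this panel Not Active means under 50% inhibition at 10 µM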
# T3 sequence (P03956 whole entry): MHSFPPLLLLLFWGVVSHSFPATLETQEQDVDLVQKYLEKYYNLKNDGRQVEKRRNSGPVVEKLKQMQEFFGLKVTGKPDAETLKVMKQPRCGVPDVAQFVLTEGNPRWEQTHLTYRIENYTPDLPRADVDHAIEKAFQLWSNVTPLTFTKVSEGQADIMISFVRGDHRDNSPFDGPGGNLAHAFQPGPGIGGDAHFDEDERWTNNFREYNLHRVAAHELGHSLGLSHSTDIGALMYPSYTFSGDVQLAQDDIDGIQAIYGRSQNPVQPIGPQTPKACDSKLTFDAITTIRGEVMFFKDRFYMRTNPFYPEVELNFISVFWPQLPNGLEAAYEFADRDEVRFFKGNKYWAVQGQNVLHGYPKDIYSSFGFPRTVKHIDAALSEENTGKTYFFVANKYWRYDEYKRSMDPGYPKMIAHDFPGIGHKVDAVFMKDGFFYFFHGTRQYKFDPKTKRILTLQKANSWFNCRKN
# Cytochrome P450 1A2 = biological target: T4, Cytochrome P450 1A2 (Homo sapiens, UniProt P05177); details: bti-tn-5b1-4; further: in other assays of this panel Not Active means under 50% inhibition at 10 µM
# T4 sequence (P05177 whole entry): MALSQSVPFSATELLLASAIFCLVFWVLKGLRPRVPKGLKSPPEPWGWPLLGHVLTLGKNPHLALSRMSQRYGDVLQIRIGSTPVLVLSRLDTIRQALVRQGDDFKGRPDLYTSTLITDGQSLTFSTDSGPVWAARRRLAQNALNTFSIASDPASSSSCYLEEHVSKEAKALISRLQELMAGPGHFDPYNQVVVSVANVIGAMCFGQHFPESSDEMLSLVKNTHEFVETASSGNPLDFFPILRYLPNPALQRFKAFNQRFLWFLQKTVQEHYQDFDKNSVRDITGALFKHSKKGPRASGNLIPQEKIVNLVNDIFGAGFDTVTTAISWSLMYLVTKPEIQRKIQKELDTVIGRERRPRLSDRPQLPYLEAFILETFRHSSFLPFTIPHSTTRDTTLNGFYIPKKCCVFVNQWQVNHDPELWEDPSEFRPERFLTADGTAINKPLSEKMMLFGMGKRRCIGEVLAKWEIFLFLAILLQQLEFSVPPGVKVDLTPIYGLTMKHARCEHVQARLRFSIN
# Sequence of Melanocortin receptor 5 (P33032 whole entry): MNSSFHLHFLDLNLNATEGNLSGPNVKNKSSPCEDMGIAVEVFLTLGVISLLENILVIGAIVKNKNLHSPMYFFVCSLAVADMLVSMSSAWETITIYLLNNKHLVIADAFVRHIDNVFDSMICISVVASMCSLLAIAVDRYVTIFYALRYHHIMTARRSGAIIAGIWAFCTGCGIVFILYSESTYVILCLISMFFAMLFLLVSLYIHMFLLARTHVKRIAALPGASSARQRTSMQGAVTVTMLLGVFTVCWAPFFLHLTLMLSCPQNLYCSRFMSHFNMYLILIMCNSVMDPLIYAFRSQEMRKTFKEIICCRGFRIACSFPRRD
Compound,IC50 [1],IC50 ([2]; cho-k1),IC50 (Substance-K receptor),IC50 (Melanocortin receptor 5),IC50 (Interstitial collagenase),IC50 (Cytochrome P450 1A2),Ki (Cytochrome P450 1A2),IC50 ([2]; read-out: IC50) [µM],Ki ([2]; read-out: Ki) [µM],Ki [1],Ki ([2]; cho-k1),Ki (Substance-K receptor),Ki (Melanocortin receptor 5),Ki (Interstitial collagenase),IC50 (Melanocortin receptor 5; read-out: IC50) [µM],Ki (Melanocortin receptor 5; read-out: Ki) [µM]
CC1COc2c(N3CCN(C)CC3)c(F)cc3c(=O)c(C(=O)O)cn1c23 (stereo not given) [OFLOXACIN],Not Active,Not Active,Not Active,Not Active,Not Active,Not Active,Not Active,,,,,,,,,
Oc1cccc2cccnc12 [OXYQUINOLINE],Not Active,Not Active,Not Active,Not Active,Not Active,Not Active,Not Active,,,,,,,,,
CN(C)[C@@H]1C(O)=C(C(N)=O)C(=O)[C@@]2(O)C(O)=C3C(=O)c4c(O)cccc4[C@@](C)(O)[C@H]3[C@H](O)[C@@H]12 [OXYTETRACYCLINE],Not Active,Not Active,Not Active,Not Active,Not Active,Not Active,Not Active,,,,,,,,,
Fc1ccc([C@@H]2CCNC[C@H]2COc2ccc3c(c2)OCO3)cc1 [PAROXETINE],Not Active,Not Active,Not Active,Not Active,Not Active,Not Active,Not Active,,,,,,,,,
CC(C)(S)[C@@H](N)C(=O)O [PENICILLAMINE],Not Active,Not Active,Not Active,Not Active,Not Active,Not Active,Not Active,,,,,,,,,
CC(=O)CCCCn1c(=O)c2c(ncn2C)n(C)c1=O [PENTOXIFYLLINE],Not Active,Not Active,Not Active,Not Active,Not Active,Not Active,Not Active,,,,,,,,,
O=C1NC(=O)C(c2ccccc2)(c2ccccc2)N1 [PHENYTOIN],Not Active,Not Active,Not Active,Not Active,Not Active,Not Active,Not Active,,,,,,,,,
CNC(=O)Oc1ccc2c(c1)[C@]1(C)CCN(C)[C@@H]1N2C [PHYSOSTIGMINE],Not Active,Not Active,Not Active,Not Active,Not Active,Not Active,Not Active,,,,,,,,,
C=C(C)[C@@H]1[C@H]2OC(=O)[C@@H]1[C@]1(O)C[C@H]3O[C@]34C(=O)O[C@H]2[C@]14C [PICROTOXININ],Not Active,Not Active,Not Active,Not Active,Not Active,Not Active,Not Active,,,,,,,,,
CN1C(C(=O)Nc2ccccn2)=C(O)c2ccccc2S1(=O)=O [PIROXICAM],Not Active,Not Active,Not Active,Not Active,Not Active,Not Active,Not Active,,,,,,,,,
CCC1(c2ccccc2)C(=O)NCNC1=O [PRIMIDONE],Not Active,Not Active,Not Active,Not Active,Not Active,Not Active,Not Active,,,,,,,,,
CCCc1cc(=O)[nH]c(=S)[nH]1 [PROPYLTHIOURACIL],Not Active,Not Active,Not Active,Not Active,Not Active,Not Active,Not Active,,,,,,,,,
COc1ccc(CN(CCN(C)C)c2ccccn2)cc1 [PYRILAMINE],Not Active,,Not Active,Not Active,Not Active,Not Active,Not Active,1.13,0.592,,,,,,,
CARBOPLATIN,Not Active,Not Active,Not Active,Not Active,Not Active,Not Active,Not Active,,,Not Active,Not Active,Not Active,Not Active,Not Active,,
CISPLATIN,Not Active,Not Active,Not Active,,Not Active,Not Active,Not Active,,,Not Active,Not Active,Not Active,,Not Active,6.43,6.04
GOLD SODIUM THIOMALATE,Not Active,Not Active,Not Active,Not Active,Not Active,Not Active,Not Active,,,Not Active,Not Active,Not Active,Not Active,Not Active,,
OXALIPLATIN,Not Active,Not Active,Not Active,Not Active,Not Active,Not Active,Not Active,,,Not Active,Not Active,Not Active,Not Active,Not Active,,
